Test results: US20240270821A1, “GIP/GLP1/GCG TRI-RECEPTOR AGONISTS AND USES THEREOF” (priority 2023, published 2024)
pEC50: −log10 of the molar value. Like-named read-outs stand apart in the source and are kept apart here. Starred links: 1 amine or outer side, 2 acyl side, 3 side chain; linkers in the order of their positions; H or OH if unused. Non-standard residues stand in square brackets, D forms with d. Residues, ends and D or L forms follow the SMILES beside them. Groups on a side chain read outwards from the residue. No end group written: not given here. *: point of attachment. C20 diacid = O=C(O)CCCCCCCCCCCCCCCCCCC(=O)*; C18 diacid = O=C(O)CCCCCCCCCCCCCCCCC(=O)*; αMePhe(2-F) = C[C@](N)(Cc1ccccc1F)C(=O)O; γGlu = O=C(O)[C@H](CCC(=O)[*:2])N[*:1]; αMe4Pal = C[C@](N)(Cc1ccncc1)C(=O)O; αMeY = C[C@](N)(Cc1ccc(O)cc1)C(=O)O; αMeF = C[C@](N)(Cc1ccccc1)C(=O)O; 4Pal = N[C@@H](Cc1ccncc1)C(=O)O; αMeL = CC(C)C[C@](C)(N)C(=O)O; αMeS = C[C@](N)(CO)C(=O)O; Orn = NCCC[C@H](N)C(=O)O; AEEA = NCCOCCOCC(=O)O; Aib = CC(C)(N)C(=O)O

Tests used:
Format in all cases: cell-based
[1] = target: T1, hGIPR (Homo sapiens, UniProt P48546); experiment: Functional cAMP activity in the presence of 1% HSA; settings: read-out: cAMP Rel EC50, hGIPR
T1 sequence (P48546 22-466): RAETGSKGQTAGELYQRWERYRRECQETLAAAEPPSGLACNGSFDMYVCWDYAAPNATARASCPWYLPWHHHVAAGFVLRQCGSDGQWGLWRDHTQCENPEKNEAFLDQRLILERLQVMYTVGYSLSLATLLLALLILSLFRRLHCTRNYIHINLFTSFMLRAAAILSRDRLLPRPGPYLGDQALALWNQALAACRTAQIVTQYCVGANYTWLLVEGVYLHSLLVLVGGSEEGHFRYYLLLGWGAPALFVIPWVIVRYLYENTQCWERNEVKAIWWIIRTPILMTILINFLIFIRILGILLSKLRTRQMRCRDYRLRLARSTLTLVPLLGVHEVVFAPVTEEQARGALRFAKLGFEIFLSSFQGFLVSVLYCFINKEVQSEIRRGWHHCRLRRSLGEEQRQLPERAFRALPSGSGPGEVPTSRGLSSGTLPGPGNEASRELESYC

[2] = target: T2, hGLP-1R (Homo sapiens, UniProt P43220); experiment: Functional cAMP activation in the presence of 0.1% casein (no HSA); settings: read-out: Relative cAMP EC50, hGLP-1R;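 further: intracellular cAMP rise after 30 min at 37 °C read by HTRF, normalized between buffer only (0%) and maximal control ligand (100%), four-parameter variable-slope fit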
[3] = target: T1, hGIPR; experiment: as above; settings: read-out: Relative cAMP EC50, hGIPR
[4] = target: T2, hGLP-1R; experiment: Functional cAMP activity in the presence of 1% HSA; settings: read-out: cAMP Rel EC50, hGLP-1R
[5] = target: human GcgR (Homo sapiens, UniProt P47871); experiment: Functional cAMP activity in the presence of 1% HSA; settings: read-out: cAMP Rel EC50, hGcgR
[6] = target: hGcgR (Homo sapiens, UniProt P47871); experiment: Functional cAMP activation in the presence of 0.1% casein (no HSA); settings: read-out: Relative cAMP EC50, hGcgR;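 further: intracellular cAMP rise after 30 min at 37 °C, read by HTRF against a cAMP standard curve, scaled from buffer only (0%) to maximal control ligand response (100%)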
[7] = in the presence of 0.1% casein (no HSA), geometric mean
[8] = 0.1% casein, no HSA, geometric mean
[9] = HEK-293 clonal cell line, 1% HSA, geometric mean of relative EC50
[10] = in the presence of 0.1% casein (no HSA), geometric mean of relative EC50
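Wherever Relative cAMP EC50, hGIPR is given: intracellular cAMP rise after 30 min at 37 °C read by HTRF against a standard curve, scaled between buffer alone (0%) and top control ligand concentration (100%), four-parameter fit.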

Chain of human GcgR (P47871 26-477): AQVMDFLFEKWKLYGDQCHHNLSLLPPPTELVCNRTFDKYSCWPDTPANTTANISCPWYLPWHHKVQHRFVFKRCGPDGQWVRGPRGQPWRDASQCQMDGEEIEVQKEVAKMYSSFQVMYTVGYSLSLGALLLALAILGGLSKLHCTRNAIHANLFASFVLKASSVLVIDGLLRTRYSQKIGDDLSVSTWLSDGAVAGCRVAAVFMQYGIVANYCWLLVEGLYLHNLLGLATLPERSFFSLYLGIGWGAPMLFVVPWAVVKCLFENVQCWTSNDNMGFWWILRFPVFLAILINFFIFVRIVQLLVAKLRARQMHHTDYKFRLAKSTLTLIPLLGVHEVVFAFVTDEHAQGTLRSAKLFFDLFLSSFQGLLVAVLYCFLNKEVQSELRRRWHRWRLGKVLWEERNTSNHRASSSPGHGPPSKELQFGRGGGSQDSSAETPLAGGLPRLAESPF
Chain of hGcgR (P47871 26-477): as above
T2 sequence (P43220 24-463): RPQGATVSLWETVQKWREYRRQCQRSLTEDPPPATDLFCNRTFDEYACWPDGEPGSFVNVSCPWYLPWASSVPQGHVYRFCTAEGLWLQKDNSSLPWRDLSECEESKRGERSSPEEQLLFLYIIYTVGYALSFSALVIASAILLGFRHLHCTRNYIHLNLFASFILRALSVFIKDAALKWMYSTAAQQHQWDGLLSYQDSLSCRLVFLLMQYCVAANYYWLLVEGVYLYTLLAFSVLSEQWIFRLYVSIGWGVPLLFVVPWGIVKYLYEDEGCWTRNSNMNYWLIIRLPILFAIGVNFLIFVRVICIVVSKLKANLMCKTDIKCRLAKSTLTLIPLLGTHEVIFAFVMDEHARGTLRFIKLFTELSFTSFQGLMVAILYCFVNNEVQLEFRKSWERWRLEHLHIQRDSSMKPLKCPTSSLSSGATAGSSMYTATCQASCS

For `CC[C@H](C)[C@H](NC(=O)[C@H](Cc1ccccc1)NC(=O)[C@H](CCCN)NC(=O)C(C)(C)NC(=O)[C@H](CCC(N)=O)NC(=O)[C@H](C)NC(=O)[C@H](CCCCNC(=O)CC[C@H](NC(=O)CC[C@H](NC(=O)CCCCCCCCCCCCCCCCC(=O)O)C(=O)O)C(=O)O)NC(=O)[C@H](CCCN)NC(=O)[C@H](CC(=O)O)NC(=O)[C@H](CC(C)C)NC(=O)[C@](C)(CC(C)C)NC(=O)[C@@H](NC(=O)[C@](C)(CO)NC(=O)[C@H](Cc1ccncc1)NC(=O)[C@H](CC(=O)O)NC(=O)[C@H](CO)NC(=O)[C@@H](NC(=O)[C@](C)(Cc1ccccc1F)NC(=O)[C@@H](NC(=O)CNC(=O)[C@H](CCC(N)=O)NC(=O)C(C)(C)NC(=O)[C@@H](N)Cc1ccc(O)cc1)[C@@H](C)O)[C@@H](C)O)[C@@H](C)CC)C(=O)N[C@H](CCC(=O)O)C(=O)N[C@@](C)(Cc1ccc(O)cc1)C(=O)N[C@@H](CC(C)C)C(=O)N[C@@H](CO)C(=O)N[C@@H](CCC(=O)O)C(=O)NCC(=O)NCC(=O)N1CCC[C@H]1C(=O)N[C@@H](CO)C(=O)N[C@@H](CO)C(=O)NCC(=O)N[C@@H](CCC(=O)O)C(=O)N1CCC[C@H]1C(=O)N1CCC[C@H]1C(=O)N1CCC[C@H]1C(=O)N[C@@H](CCC(=O)O)C(N)=O` [Example 438] (H-Y[Aib]QGT[αMePhe(2-F)]TSD[4Pal][αMeS]I[αMeL]LD[Orn]K([γGlu-γGlu-C18 diacid])AQ[Aib][Orn]FI[dE][αMeY]LSEGGPSSGEPPPE-NH2), the pEC50 [1] was 7.27, the pEC50 [2] was 9.09 and the pEC50 [3] was 9.65. It also gave a pEC50 [4] of 7.39, a pEC50 [5] of 6.37 and a pEC50 [6] of 8.44.
In the case of “H-Y[Aib]QGTFTSD[4Pal]S[Orn][αMeL]LD[Orn]K([γGlu-γGlu-C18 diacid])AQ[αMe4Pal]QFIEYLLAGGPSSGAPPPSGSEE-NH2 [Example 1002]”, the pEC50 [1] was 7.94, the pEC50 [2, 7] was 8.04 and the pEC50 [3, 7] was 9.92. The pEC50 [4] was 5.89, the pEC50 [5] was 6.71 and the pEC50 [6, 7] was 8.72.
For “H-Y[Aib]QGT[αMePhe(2-F)]TSD[4Pal][αMeS]I[αMeL]LD[Orn]K([AEEA-γGlu-C18 diacid])AQ[αMe4Pal]EFI[dE][αMeY]LIEGGPPS[Aib][Orn]PPPEGE-NH2 [Example 1194]”, the pEC50 [1] was 9.12, the pEC50 [2, 8] was 9.29 and the pEC50 [3, 8] was 11.14. The pEC50 [4] was 7.24, the pEC50 [5] was 6.67 and the pEC50 [6, 8] was 8.69.
“Y[Aib]QGT[αMePhe(2-F)]TSD[4Pal]SI[αMeL]LD[Orn]QAQ[αMe4Pal][Orn]FI[dE][αMeY]LIEGGPSSGEPPPETE-NH2 [Example 1230]” showed a pEC50 [1] of 10.82, a pEC50 [2, 8] of 8.92 and a pEC50 [3, 8] of 10.66. The pEC50 [4] was 8.94, the pEC50 [5] was 7.16 and the pEC50 [6, 8] was 7.19.
“H-Y[Aib]QGT[αMePhe(2-F)]TSD[4Pal]SI[αMeL]LDKK([γGlu-γGlu-C18 diacid])AQ[Aib]AFIEYLSEGGPSSGEPPPSGSEE-NH2 [Example 632]” was tested, and the pEC50 [1, 9] was 8.26, the pEC50 [2, 10] was 9.02 and the pEC50 [3, 10] was 10.17. For the same molecule, the pEC50 [4, 9] was 7.05, the pEC50 [5, 9] was 5.80 and the pEC50 [6, 10] was 7.87.
Work on “H-Y[Aib]QGT[αMePhe(2-F)]TSD[4Pal][αMeS]I[αMeL]LD[Orn]K([γGlu-γGlu-C18 diacid])AA[Aib]EFI[dE][αMeY]LIEGGPSSGAPPPSGGGE-NH2 [Example 747]” yielded a pEC50 [1] of 9.19, a pEC50 [2] of 9.64 and a pEC50 [3] of 11.02. The pEC50 [4] was 7.69, the pEC50 [5] was 6.77 and the pEC50 [6] was 8.77.
Molecule “H-Y[Aib]QGT[αMePhe(2-F)]TSD[4Pal][αMeS]I[αMeL]LD[Orn]K([AEEA-γGlu-C18 diacid])AA[Aib]EFI[dE][αMeY]LVEGGPSSGAPPPSGS-NH2 [Example 693]” has a pEC50 [1] of 8.96, a pEC50 [2] of 9.79 and a pEC50 [3] of 10.98. For the same molecule, the pEC50 [4] was 7.74, the pEC50 [5] was 6.52 and the pEC50 [6] was 8.62.
“H-Y[Aib]QGT[αMePhe(2-F)]TSD[4Pal][αMeS]ILLD[Orn]K([γGlu-γGlu-C18 diacid])AQ[Aib][Orn]FI[dE]YLIEGGPSSGEPPPSGTEE-NH2 [Example 576]” showed a pEC50 [1] of 8.09, a pEC50 [2] of 9.28 and a pEC50 [3] of 10.14. For the same molecule, the pEC50 [4] was 7.25, the pEC50 [5] was 6.19 and the pEC50 [6] was 8.20.
Work on “H-Y[Aib]QGT[αMePhe(2-F)]TSDYSI[αMeL]LDKK([AEEA-AEEA-γGlu-C20 diacid])AA[Aib]AFIEYLIETGPSSGAPPPSEG-NH2 [Example 383]” yielded a pEC50 ([1]; HEK-293 clonal cells expressing hGIPR, in the presence of 1% HSA, geometric mean of relative EC50) of 7.49, a pEC50 [2, 7] of 9.59 and a pEC50 [3, 7] of 10.39. It also gave a pEC50 ([4]; HEK-293 clonal cells expressing hGLP-1R, in the presence of 1% HSA, geometric mean of relative EC50) of 7.10, a pEC50 ([5]; HEK-293 clonal cells expressing hGcgR, in the presence of 1% HSA, geometric mean of relative EC50) of 6.28 and a pEC50 [6, 7] of 8.90.
Molecule “H-Y[Aib]QGT[αMePhe(2-F)]TSD[4Pal][αMeS]I[αMeL]LD[Orn]K([AEEA-γGlu-C18 diacid])AA[Aib]EFI[dE][αMeY]LLEGGPSSGAPPPSGS-NH2 [Example 672]” has a pEC50 [1] of 8.82, a pEC50 [2] of 9.41 and a pEC50 [3] of 10.85. For the same molecule, the pEC50 [4] was 7.31, the pEC50 [5] was 6.79 and the pEC50 [6] was 8.92.
`CC[C@H](C)[C@H](NC(=O)[C@H](Cc1ccccc1)NC(=O)[C@H](CCCN)NC(=O)C(C)(C)NC(=O)[C@H](CCC(N)=O)NC(=O)[C@H](C)NC(=O)[C@H](CCCCNC(=O)COCCOCCNC(=O)CC[C@H](NC(=O)CCCCCCCCCCCCCCCCC(=O)O)C(=O)O)NC(=O)[C@H](CCCN)NC(=O)[C@H](CC(=O)O)NC(=O)[C@H](CC(C)C)NC(=O)[C@H](CC(C)C)NC(=O)[C@H](CO)NC(=O)[C@](C)(CO)NC(=O)[C@H](Cc1ccc(O)cc1)NC(=O)[C@H](CC(=O)O)NC(=O)[C@H](CO)NC(=O)[C@@H](NC(=O)[C@](C)(Cc1ccccc1)NC(=O)[C@@H](NC(=O)CNC(=O)[C@H](CCC(N)=O)NC(=O)C(C)(C)NC(=O)[C@@H](N)Cc1ccc(O)cc1)[C@@H](C)O)[C@@H](C)O)C(=O)N[C@H](CCC(=O)O)C(=O)N[C@@](C)(Cc1ccc(O)cc1)C(=O)N[C@@H](CC(C)C)C(=O)N[C@@H](CC(C)C)C(=O)N[C@@H](CCC(=O)O)C(=O)NCC(=O)NCC(=O)N1CCC[C@H]1C(=O)N[C@@H](CO)C(=O)N[C@@H](CO)C(=O)NCC(=O)N[C@@H](CCC(=O)O)C(=O)N1CCC[C@H]1C(=O)N1CCC[C@H]1C(=O)N1CCC[C@H]1C(=O)N[C@@H](CCC(=O)O)C(N)=O` [Example 390] (H-Y[Aib]QGT[αMeF]TSDY[αMeS]SLLD[Orn]K([AEEA-γGlu-C18 diacid])AQ[Aib][Orn]FI[dE][αMeY]LLEGGPSSGEPPPE-NH2) was tested, and the pEC50 [1] was 7.42, the pEC50 [2, 7] was 9.87 and the pEC50 [3, 7] was 9.91. The pEC50 [4] was 7.71, the pEC50 [5] was 6.26 and the pEC50 [6, 7] was 8.51.
With “Y[Aib]QGTFTSD[4Pal]SQ[αMeL]LD[Orn]K([dE-γGlu-C18 diacid])AQ[αMe4Pal]QFIE[αMeY]LIAGGPSSGAPPPSGSEEE-NH2 [Example 1081]” the pEC50 [1] was 8.07, the pEC50 [2, 7] was 8.89 and the pEC50 [3, 7] was 9.98. It also gave a pEC50 [4] of 6.82, a pEC50 [5] of 5.67 and a pEC50 [6, 7] of 7.71.
With “H-Y[Aib]QGTFTSD[4Pal]SQ[αMeL]LD[Orn]K([γGlu-γGlu-C18 diacid])AQ[αMe4Pal]QFIE[αMeY]LIEGGPSSGAPPPSGSEE-NH2 [Example 1046]” the pEC50 [1] was 7.07, the pEC50 [2, 7] was 8.71 and the pEC50 [3, 7] was 9.45. For the same molecule, the pEC50 [4] was 6.28, the pEC50 [5] was 5.77 and the pEC50 [6, 7] was 8.00.
